As a reminder, the IC50 is the concentration needed to halve the response being measured. Low readings indicate greater potency in that assay, high ones weaker potency in that assay.

Where a SMILES comes first, the peptide text is derived from it. [ ]: non-standard residue; d: D form.

Consider one compound from BindingDB's records for doi:10.1016/S0960-894X(01)81215-4 (1993).

The assay is described as follows: Displacement of [125I]-ET-1 from Endothelin A receptor of rabbit renal artery vascular smooth muscle cells. For orientation: Displacement assays read how much labelled ligand stays bound in the presence of the test substance.

The compound `CC[C@H](C)[C@H](NC(=O)[C@H](CC(=O)O)NC(=O)[C@H](CCC(=O)O)NC(=O)[C@@H](Cc1ccccc1)NC(C)=O)C(=O)N[C@H](C(=O)N[C@@H](Cc1c[nH]c2ccccc12)C(=O)O)[C@@H](C)CC` [(S)-4-((R)-2-Acetylamino-3-phenyl-propionylamino)-4-((S)-2-carboxy-1-{(S)-1-[(S)-(S)-1-((S)-1-carboxy-2-(S)-1H-indol-3-yl-ethylcarbamoyl)-2-methyl-butylcarbamoyl]-2-methyl-butylcarbamoyl}-ethylcarbamoyl)-butyric acid] (Ac-[dF]EDIIW-OH) displayed a concentration for half-maximal inhibition (IC50) of 0.65 µM.
